From article PMC11666850, “Development and evaluation of deuterated [^18F]JHU94620 isotopologues for the non-invasive assessment of the cannabinoid type 2 receptor in brain” (EJNMMI Radiopharmacy and Chemistry, 2024)
Read-outs that look alike come from different tables or passages of the source.

Key:
human CB2R (hCB2R) = biological target: T1, human CB2R (hCB2R) (Homo sapiens, UniProt P34972); assay: Homologous competition binding, CHO(hCB2R) cell membranes
T1 construct: expressed in transfected cells; host or cells: CHO(hCB2R) cells, obtained from Paul L. Prather, University of Arkansas for Medical Sciences
Procedure: For binding studies crude homogenates of CHO(hCB2R) cells (obtained from Paul L. Prather, Department of Pharmacology and Toxicology, College of Medicine, University of Arkansas for Medical Sciences, USA) were incubated with the reference compound (self-blocking) or the CB2R-specific partial agonist GW405833 (Tocris Bioscience, Bristol, UK) with indicated concentrations at room temperature for 90 min. The total volume of 1 mL of each sample consisted of 600 µL incubation buffer (50 mM Tris HCl pH7.4, 5 mM MgCl2, 1 mM EDTA and 1% Bovine Serum Albumin), 200 µL cell membrane homogenates, 100 µL competitor or binding buffer (total binding) and 100 µl of binding buffer with [^18F]JHU94620-d8 (about 100 kBq per vial, corresponding to 0.8 to 1.6 nM). Incubation was terminated by rapid filtration through a GF-B glass fibre filter, pre-treated with 0.5% PVP with 0.1% Tween 20 solution, using a 48-well cell harvester, washed six times with buffer and filter bound activity was subsequently measured in a γ-counter (1480 WIZARD, Perkin Elmer, Turku, Finland).
The KD values were calculated with GraphPad Prism according to the modified Cheng-Prusoff method for homologous competitive binding studies, where the KD = Ki = IC50—[radioligand] and the Bmax = specific binding / [radioligand] / ((KD + [radioligand])) (Motulsky and Neubig [2000]), assuming a total protein content of 8.2% (1.3 10^–4 µg protein per voxel) in the spleen (Zaia et al. [2000]) or by determining the protein concentration of the cell membrane lysates using a BCA assay (Thermo Scientific, Braunschweig, Germany). The fractional occupancy defined as occupied binding sites per total binding sites is used to describe the binding fraction specifically bound to CB2R compared to unspecific binding, where [L] is the concentration of the ligand at the start of incubation.

CB2R = biological target: T2, CB2R (Mus musculus, UniProt P47936); assay: Quantitative autoradiography, mouse spleen cryosections; type: binding
T2 construct: from tissue; host or cells: mouse spleen cryosections
Procedure: For quantitative autoradiography in different species, 10 µm cryosections from mouse, rat and piglet spleen were thawed, dried, and pre-incubated with incubation buffer for 10 min, dried under an airstream. Subsequently, the incubation buffer containing [^18F]JHU94620-d8 (59–137 GBq µmol^−1, 1.7–3.6 nM) was added alone or together with indicated concentrations of the reference compound. Additionally, to assess the non-specific binding of [^18F]JHU94620-d8 to cryosections GW405833 was added instead of the reference compound. After 90 min, cryosections were washed two times for 2 min with ice-cold 50 mM Tris HCl, pH7.4 and 10 s in ddH2O and subsequently dried under an airstream. For the calculation of the radioactivity concentration, 5 µl of five serial 1:2 dilutions of the incubation buffer with [^18F]JHU94620-d8 were air-dried on a microscopic slide. For binding studies in rat spleen cryosections by autoradiography with HLM-derived radiometabolites of [^18F]JHU94620-d8 obtained from the radiometabolite assay, the samples were added to the incubation buffer to a final activity concentration of 0.2 MBq mL^−1 and protocol was followed as described above. Subsequently, the slides were exposed to a phosphor imager plate. After scanning at high sensitivity and a 12.5 µm resolution with a CR35 Bio image plate scanner (Raytest Isotopenmessgeräte GmbH, Straubenhardt, Germany). The analyses of the autoradiographic images were performed with the AIDA 5.1 software (Elysia-Raytest, Angleur, Belgium) resulting in a resolution of 12.617 pixel × 12.616 pixel per µm^2 (1 voxel = 1592 µm^3 ≙ 1.59 10^–3 µg wet tissue) and inhibition curves were created with GraphPad Prism 9.5.1 (GraphPad Inc., La Jolla, CA). […]

in vivo = conditions: male, Wistar, rat, iv
Procedure: Female adult CD-1 mice (25–42 g body weight) were used for radiometabolite analysis of [^18F]JHU94620-d4 (n = 2, 33 and 34 MBq) and [^18F]JHU94620-d8 (n = 3, 26–33 MBq) at 30 min after intravenous tail vein injection of the radiotracer to allow for the comparison of radiometabolite analysis of [^18F]JHU94620 (Moldovan et al. [2016]). The mice were immobilized by short isoflurane narcosis for the injection of the radiotracer in a restrainer and awakened mice were kept in an isolated cage until euthanisation by cervical dislocation under isoflurane narcosis. Male Wistar rats (n = 12, 613–794 g) were used for radiometabolite analysis of [^18F]JHU94620-d8 at different time points (5, 15, 30 and 60 min p.i.) after intravenous tail vein injection of the radiotracer (37–74 MBq) for the correction of the input function in pharmacokinetic analysis. Rats were kept under isoflurane narcosis (gas mixture: 2.5% isoflurane and O2) on a warmed plate until euthanization by decapitation of deep narcotized animals. Plasma samples were obtained by centrifugation with 5500 g of blood samples for 2 min at 4 °C. Resected tissues brain and spleen were kept on ice and minced for 3 × 20 s with adding 0.5 to 1 mL of 0.9% NaCl using a Precellys lysing kit and Minilys homogenizer (Bertin Technologies SAS, Montigny-le-Bretonneux, France).
The samples were further processed for subsequent radio-chromatographic analyses. Two consecutive extractions were performed in duplicates for plasma and brain determinations. Plasma, brain and spleen samples were added to the four time the volume of an ice-cold MeOH/H2O mixture (9:1, v/v). […] The activities of supernatants and precipitates were measured in a γ-counter (1480 WIZARD, Perkin Elmer), and the extraction efficiencies were calculated as the ratio of radioactivity in the supernatant to the radioactivity in the original sample (supernatant + precipitate). The supernatants from both extractions were combined, concentrated at 70 °C under argon stream up to a remaining volume of 100 µL, and subsequently analysed by analytical radio-HPLC (method A or B).

hCB2R(D80N) = hCB2R(D80N) (Homo sapiens, UniProt P34972, D80N)
[1] = female, Wistar, rat, in vivo, 60 min

Sequence of hCB2R(D80N) (P34972 whole entry D80N): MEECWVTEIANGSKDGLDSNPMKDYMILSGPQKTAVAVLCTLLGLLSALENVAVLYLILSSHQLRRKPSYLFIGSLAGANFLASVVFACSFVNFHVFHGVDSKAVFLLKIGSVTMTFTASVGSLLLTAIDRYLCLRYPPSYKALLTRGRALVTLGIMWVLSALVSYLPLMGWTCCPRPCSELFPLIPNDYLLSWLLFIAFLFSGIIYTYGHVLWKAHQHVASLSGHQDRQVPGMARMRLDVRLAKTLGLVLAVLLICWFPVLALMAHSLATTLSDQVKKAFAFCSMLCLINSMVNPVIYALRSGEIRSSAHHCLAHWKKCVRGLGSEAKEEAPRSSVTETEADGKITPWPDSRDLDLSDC
T2 sequence (P47936 whole entry): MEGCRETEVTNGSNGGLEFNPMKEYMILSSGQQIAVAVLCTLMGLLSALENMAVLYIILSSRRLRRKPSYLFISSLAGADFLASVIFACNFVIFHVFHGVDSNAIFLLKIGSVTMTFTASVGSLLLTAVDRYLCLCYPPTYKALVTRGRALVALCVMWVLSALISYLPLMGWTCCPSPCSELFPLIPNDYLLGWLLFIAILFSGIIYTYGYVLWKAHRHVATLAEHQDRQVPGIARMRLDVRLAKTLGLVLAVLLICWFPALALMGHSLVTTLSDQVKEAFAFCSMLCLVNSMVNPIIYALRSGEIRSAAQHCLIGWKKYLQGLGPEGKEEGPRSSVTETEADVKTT
T1 sequence (P34972 whole entry): as the sequence (P34972 whole entry D80N) above, with N80D counted along it

Q: Which Kd (human CB2R (hCB2R)) does the source give for [2H]C([2H])([18F])C([2H])([2H])C([2H])([2H])C([2H])([2H])n1c(C)c(C)s/c1=N\C(=O)C1C(C)(C)C1(C)C [[^18F]JHU94620-d8] here?
A: The Kd was 1.47 nM.

Q: And the Bmax (human CB2R (hCB2R); CHO(hCB2R) cell membrane fractions)?
A: The Bmax was 2.7 pmol mg^−1 protein.

Q: And the Kd (CB2R)?
A: Its Kd is 1.98 nM.

Q: What about the “specific binding to CB2R” value (CB2R; mouse spleen cryosections, blocking with 10 µM GW405833 or self-blocking) of the same compound?
A: The value was 40 ± 18%.

Q: And the Bmax (CB2R; spleen of mice)?
A: Its Bmax is 0.08 pmol mg^−1 protein.

Q: And the half-life (in vivo; metabolic half-life (t1/2) in brain)?
A: Its half-life is 53.8 min.

Q: And the half-life (in vivo; metabolic half-life (t1/2) in plasma)?
A: The half-life was 7.6 min.

Q: What about the half-life (in vivo; metabolic half-life (t1/2) in spleen) of the same compound?
A: The half-life was 37.3 min.

Q: What about the “BPND in the hCB2R(D80N) region” value (hCB2R(D80N); SRTM, cerebellar region as reference) of the same compound?
A: Its value is 26.

Q: What about the “reduction of AUC20-60min when normalized to the cerebellum” value (hCB2R(D80N); after injection of GW405833, compared to the control group) of the same compound?
A: The value was 61%.

Q: And the “TAC peak, potential reference regions (contralateral and cerebellum)” value (hCB2R(D80N); female, Wistar, rat, in vivo)?
A: The value was “about 3 SUVmean”.

Q: What about the “VT in the brain region bearing the hCB2R(D80N) overexpression” value (hCB2R(D80N); female, Wistar, rat, in vivo) of the same compound?
A: The value was 320 ± 135 mL ccm^−1.

Q: What about the “VT in the other investigated brain regions” value (hCB2R(D80N); female, Wistar, rat, in vivo) of the same compound?
A: The value was 5.9-13.8 mL ccm^−1.

Q: What about the “SUVmean in the cerebellar region at 60 min p.i.” value (hCB2R(D80N); [1]) of the same compound?
A: The value was 0.16 ± 0.03 SUVmean.

Q: What about the “SUVmean in the contralateral region at 60 min p.i.” value (hCB2R(D80N); [1]) of the same compound?
A: Its value is 0.8 ± 0.3 SUVmean.

Q: And the “AUC20-60min (CI95%), hCB2R D80N-to-Cerebellum” value (hCB2R(D80N); human, in vivo)?
A: The value was 1128 (1058 to 1198) SUVr ∙ min.

Q: And the “AUC20-60min (CI95%), hCB2R D80N-to-Contralateral” value (hCB2R(D80N); human, in vivo)?
A: The value was 291 (226 to 355) SUVr ∙ min.

Q: And the “AUC, Cerebellum” value (hCB2R(D80N); human, in vivo)?
A: The value was 30 ± 4 SUV ∙ min.

Q: And the “AUC, Contralateral” value (hCB2R(D80N); human, in vivo)?
A: The value was 74 ± 16 SUV ∙ min.

Q: What about the “AUC, hCB2R(D80N)” value (hCB2R(D80N); human, in vivo) of the same compound?
A: The value was 412 ± 90 SUV ∙ min.

Q: What about the “AUC20-60min (CI95%), hCB2R D80N-to-Cerebellum” value (hCB2R(D80N); human, in vivo, iv, 5 mg/kg) of the same compound?
A: The value was 435 (367 to 502) SUVr ∙ min.

Q: What about the “AUC20-60min (CI95%), hCB2R D80N-to-Contralateral” value (hCB2R(D80N); human, in vivo, iv, 5 mg/kg) of the same compound?
A: The value was 272 (233 to 311) SUVr ∙ min.
